{
  "source": "patent US5567716A",
  "about": "“Trans and cis traumatic acid salts having cicatrizant activity associated to bacteriostatic, antiviral, antibiotic or antifungal activity” (priority 1992, dated 1996)",
  "key": {"[1]": {"system": "PS Maltophila ATCC.13637", "test": "Antibacterial activity, diffusion method in agar-germs (2.a)", "format": "cell-based", "protocol": "(§1) In a Tryprone Soy Agar diffusion medium ATCC (American Type Culture Collection) standard bacterial strains are inoculated, preparing a final solution of 10^6 cfu/g (colony forming unities) of the following strains:\n(§2) Every plate contains 20 ml of a medium where 2 equidistant wells having a standard diameter are Formed and in each of these wells […] of the above described bacterial solution are inoculated. 2 plates are prepared for every couple of compounds to be tested at different concentrations, and For every strain, and each of these plates is compared with a white (sterile demineralized water inoculum). After the inoculum, the plates are placed in the refrigerator to favour diffusion and temporaneously blocking bacterial growth.\n(§3) The compounds hexadecyltrimethylammonium traumatate and benzyldimethylhexadecylammonium traumatare respectively versus hexadecyl trimethylammonium bromide and benzyldimethylhexadecylammonium chloride are solubilized in demineralized water to Form solutions at the concentrations: 0.1; 0.5; and 1%.\n(§4) The antibacterial effect is evaluated by measuring bacterial diffusion halo around the well vs white (halo absence)."}, "[2]": {"system": "Pseudomonas Aeruginosa ATCC.35422", "test": "Antibacterial activity, diffusion method in agar-germs (2.a)", "format": "cell-based", "protocol": "as §1, §2, §3, §4"}, "[3]": {"system": "E. Coli ATCC.35218", "test": "Antibacterial activity, diffusion method in agar-germs (2.a)", "format": "cell-based", "protocol": "as §1, §2, §3, §4"}, "[4]": {"system": "Aspergillus Niger ATCC 16404", "test": "Antibacterial activity, diffusion method in agar-germs (2.a)", "format": "cell-based", "parameters": "unit not given here", "protocol": "as §1, §2, §3, §4"}, "[5]": {"system": "Candida Albicans ATCC.10231", "test": "Antibacterial activity, diffusion method in agar-germs (2.a)", "format": "cell-based", "parameters": "unit not given here", "protocol": "as §1, §2, §3, §4"}, "[6]": {"system": "PS Cepacia ATCC.25416", "test": "Antibacterial activity, diffusion method in agar-germs (2.a)", "format": "cell-based", "parameters": "unit not given here", "protocol": "as §1, §2, §3, §4"}, "[7]": {"system": "Streptococcus Fecalis ATCC.291212", "test": "Antibacterial activity, diffusion method in agar-germs (2.a)", "format": "cell-based", "parameters": "unit not given here", "protocol": "as §1, §2, §3, §4"}, "[8]": {"system": "Stafilococcus Aureus ATCC.65380", "test": "Antibacterial activity, diffusion method in agar-germs (2.a)", "format": "cell-based", "parameters": "unit not given here", "protocol": "as §1, §2, §3, §4"}, "[9]": {"system": "Stafilococcus Epidermidis ATCC.14990", "test": "Antibacterial activity, diffusion method in agar-germs (2.a)", "format": "cell-based", "parameters": "unit not given here", "protocol": "as §1, §2, §3, §4"}, "[10]": {"test": "Physical chemical characteristics: solubility in water and organic solvents"}, "[11]": {"system": "3T3 fibroblasts", "test": "Cellular proliferation of 3T3 fibroblasts, neutral red colorimetry (1.1a)", "format": "cell-based, Mice", "protocol": "Experiments on 3T3 fibroblasts\nMice 3T3 fibroblasts cultures sown at a 40.000/ml concentration on plates having 6 wells in a DMEM culture medium enriched with 10% calf serum are used. After 24 hours culture, the 90 prepared wells are divided in order to allow the analyses of the compounds of the invention, every compound to be tested being used respectively at a concentration of 0.1, 1 and 10 μg/ml by subsequent evaluations after 48 and 72 hours of incubation.\nHexadecyltrimethylammoniun (ETA) traumatare: solubilized in water and brought to the desired final concentrations of 0.1. 1 and 10 μg/ml by progressive dilutions;\nEthanolamine traumatate: solubilized in water and brought to the final concentrations of 0.1, 1 and 10 μg/ml by progressive dilutions;\nTraumatic acid: neutralized with sodium hydroxyde and solubilized in water, then brought to the final concentrations of 0.1, 1 and 10 μg/ml by progressive dilutions with the culture medium.\nThe compounds are added to the cells after 24 hours culture. The cells number is measured by colorimetry with the neutral red intravital stain after 24, 48, 72 hours of incubation."}},
  "data": [
    {"smiles": "CCCCCCCCCCCCCCCC[N+](C)(C)Cc1ccccc1.[Cl-]", "note": "[BMA Chloride, benzyldimethylhexadecylammonium chloride, reference compound]", "values": [
      {"measurement": "bacterial diffusion halo", "setting": "[1]; sol. 0.1%", "result": "n.h."},
      {"measurement": "bacterial diffusion halo", "setting": "[1]; sol. 0.5%", "result": "n.h."},
      {"measurement": "bacterial diffusion halo", "setting": "[1]; sol. 1%", "result": 15},
      {"measurement": "bacterial diffusion halo", "setting": "[2]; sol. 0.1%", "result": "n.h."},
      {"measurement": "bacterial diffusion halo", "setting": "[2]; sol. 0.5%", "result": 12},
      {"measurement": "bacterial diffusion halo", "setting": "[2]; sol. 1%", "result": 14},
      {"measurement": "bacterial diffusion halo", "setting": "[3]; sol. 0.1%", "result": "n.h."},
      {"measurement": "bacterial diffusion halo", "setting": "[3]; sol. 0.5%", "result": "n.h."},
      {"measurement": "bacterial diffusion halo", "setting": "[3]; sol. 1%", "result": 13},
      {"measurement": "bacterial diffusion halo", "setting": "[4]; sol. 0.1%", "result": 13},
      {"measurement": "bacterial diffusion halo", "setting": "[4]; sol. 0.5%", "result": 16},
      {"measurement": "bacterial diffusion halo", "setting": "[4]; sol. 1%", "result": 19},
      {"measurement": "bacterial diffusion halo", "setting": "[5]; sol. 0.1%", "result": 13},
      {"measurement": "bacterial diffusion halo", "setting": "[5]; sol. 0.5%", "result": 15},
      {"measurement": "bacterial diffusion halo", "setting": "[5]; sol. 1%", "result": 16},
      {"measurement": "bacterial diffusion halo", "setting": "[6]; sol. 0.1%", "result": 12},
      {"measurement": "bacterial diffusion halo", "setting": "[6]; sol. 0.5%", "result": 15},
      {"measurement": "bacterial diffusion halo", "setting": "[6]; sol. 1%", "result": 15},
      {"measurement": "bacterial diffusion halo", "setting": "[7]; sol. 0.1%", "result": 12},
      {"measurement": "bacterial diffusion halo", "setting": "[7]; sol. 0.5%", "result": 14},
      {"measurement": "bacterial diffusion halo", "setting": "[7]; sol. 1%", "result": 15},
      {"measurement": "bacterial diffusion halo", "setting": "[8]; sol. 0.1%", "result": 17},
      {"measurement": "bacterial diffusion halo", "setting": "[8]; sol. 0.5%", "result": 22},
      {"measurement": "bacterial diffusion halo", "setting": "[8]; sol. 1%", "result": 22},
      {"measurement": "bacterial diffusion halo", "setting": "[9]; sol. 0.1%", "result": 15},
      {"measurement": "bacterial diffusion halo", "setting": "[9]; sol. 0.5%", "result": 18},
      {"measurement": "bacterial diffusion halo", "setting": "[9]; sol. 1%", "result": 19}
    ]},
    {"smiles": "NCCO.O=C(O)/C=C/CCCCCCCCC(=O)O", "note": "[ethanolamine traumatate, ethanolamine trans-traumatate]", "values": [
      {"measurement": "solubility", "setting": "[10]; ethanol, organic solvent or mixture", "result": "> 10000", "unit": "µg/mL"},
      {"measurement": "solubility", "setting": "[10]; water", "result": "> 10000", "unit": "µg/mL"},
      {"measurement": "effect on cells proliferation", "setting": "[11]; 0.1 μg/ml, in words", "result": "able to affect cells proliferation according to a not statistically significant trend"},
      {"measurement": "effect on cellular proliferation", "setting": "[11]; 1 μg/ml, in words, ETA salt > ethanolamine salt = traumatic acid", "result": "able to increase cellular proliferation"},
      {"measurement": "cells numeration (colorimetric, neutral red)", "setting": "[11]; 24 hours of incubation, 0.1 (head: μg/ml), control 0.579 ± 0.021", "result": "0.562 ± 0.013"},
      {"measurement": "cells numeration (colorimetric, neutral red)", "setting": "[11]; 24 hours of incubation, 1.0 (head: μg/ml), control 0.579 ± 0.021", "result": "0.609 ± 0.033"},
      {"measurement": "cells numeration (colorimetric, neutral red)", "setting": "[11]; 24 hours of incubation, 10.0 (head: μg/ml), control 0.579 ± 0.021", "result": "0.553 ± 0.027"},
      {"measurement": "cells numeration (colorimetric, neutral red)", "setting": "[11]; 48 hours of incubation, 0.1 (head: μg/ml), control 1.334 ± 0.050", "result": "1.415 ± 0.106"},
      {"measurement": "cells numeration (colorimetric, neutral red)", "setting": "[11]; 48 hours of incubation, 1.0 (head: μg/ml), control 1.334 ± 0.050", "result": "1.435 ± 0.082"},
      {"measurement": "cells numeration (colorimetric, neutral red)", "setting": "[11]; 48 hours of incubation, 10.0 (head: μg/ml), control 1.334 ± 0.050, ** p < 0.01 significant reduction", "result": "1.415 ± 0.132"},
      {"measurement": "cells numeration (colorimetric, neutral red)", "setting": "[11]; 72 hours of incubation, 0.1 (head: μg/ml), control 2.360 ± 0.125", "result": "2.382 ± 0.039"},
      {"measurement": "cells numeration (colorimetric, neutral red)", "setting": "[11]; 72 hours of incubation, 1.0 (head: μg/ml), control 2.360 ± 0.125", "result": "2.463 ± 0.100"},
      {"measurement": "cells numeration (colorimetric, neutral red)", "setting": "[11]; 72 hours of incubation, 10.0 (head: μg/ml), control 2.360 ± 0.125, ** p < 0.01 significant reduction", "result": "2.408 ± 0.085"},
      {"measurement": "time necessary for the cells to reach the confluence", "setting": "[11]; side control experiment, ETA and ethanolamine salts > traumatic acid", "result": "reduce the time normally necessary for the cells to reach the confluence"}
    ]},
    {"smiles": "Clc1ccc(COC(C[n+]2cc[nH]c2)c2ccc(Cl)cc2Cl)c(Cl)c1.Clc1ccc(COC(C[n+]2cc[nH]c2)c2ccc(Cl)cc2Cl)c(Cl)c1.O=C([O-])/C=C/CCCCCCCCC(=O)[O-]", "note": "(racemic) [miconazole trans-traumatate]", "values": [
      {"measurement": "organic solvent solubility", "setting": "[10]; in ethanol", "result": "> 10000", "unit": "µg/mL"},
      {"measurement": "solubility in water", "setting": "[10]; water", "result": "> 10000", "unit": "µg/mL"}
    ]},
    {"smiles": "CCCCCCCCCCCCCCCC[N+](C)(C)C.[Br-]", "note": "[ETA Bromide, hexadecyltrimethylammonium bromide, reference compound]", "values": [
      {"measurement": "bacterial diffusion halo", "setting": "[1]; sol. 0.1%", "result": "n.h."},
      {"measurement": "bacterial diffusion halo", "setting": "[1]; sol. 0.5%", "result": 15},
      {"measurement": "bacterial diffusion halo", "setting": "[1]; sol. 1%", "result": 21},
      {"measurement": "bacterial diffusion halo", "setting": "[2]; sol. 0.1%", "result": "n.h."},
      {"measurement": "bacterial diffusion halo", "setting": "[2]; sol. 0.5%", "result": "n.h."},
      {"measurement": "bacterial diffusion halo", "setting": "[2]; sol. 1%", "result": "n.h."},
      {"measurement": "bacterial diffusion halo", "setting": "[3]; sol. 0.1%", "result": "n.h."},
      {"measurement": "bacterial diffusion halo", "setting": "[3]; sol. 0.5%", "result": 13},
      {"measurement": "bacterial diffusion halo", "setting": "[3]; sol. 1%", "result": 15},
      {"measurement": "bacterial diffusion halo", "setting": "[4]; sol. 0.1%", "result": 19},
      {"measurement": "bacterial diffusion halo", "setting": "[4]; sol. 0.5%", "result": 22},
      {"measurement": "bacterial diffusion halo", "setting": "[4]; sol. 1%", "result": 22},
      {"measurement": "bacterial diffusion halo", "setting": "[5]; sol. 0.1%", "result": 19},
      {"measurement": "bacterial diffusion halo", "setting": "[5]; sol. 0.5%", "result": 24},
      {"measurement": "bacterial diffusion halo", "setting": "[5]; sol. 1%", "result": 25},
      {"measurement": "bacterial diffusion halo", "setting": "[6]; sol. 0.1%", "result": 18},
      {"measurement": "bacterial diffusion halo", "setting": "[6]; sol. 0.5%", "result": 19},
      {"measurement": "bacterial diffusion halo", "setting": "[6]; sol. 1%", "result": 22},
      {"measurement": "bacterial diffusion halo", "setting": "[7]; sol. 0.1%", "result": 20},
      {"measurement": "bacterial diffusion halo", "setting": "[7]; sol. 0.5%", "result": 22},
      {"measurement": "bacterial diffusion halo", "setting": "[7]; sol. 1%", "result": 22},
      {"measurement": "bacterial diffusion halo", "setting": "[8]; sol. 0.1%", "result": 21},
      {"measurement": "bacterial diffusion halo", "setting": "[8]; sol. 0.5%", "result": 24},
      {"measurement": "bacterial diffusion halo", "setting": "[8]; sol. 1%", "result": 24},
      {"measurement": "bacterial diffusion halo", "setting": "[9]; sol. 0.1%", "result": 20},
      {"measurement": "bacterial diffusion halo", "setting": "[9]; sol. 0.5%", "result": 22},
      {"measurement": "bacterial diffusion halo", "setting": "[9]; sol. 1%", "result": 22}
    ]}
  ]
}
